Results: US11136313B2, “Compounds, compositions, and methods for modulating CFTR” (Proteostasis Therapeutics, Inc., priority 2015, dated 2021)

The compounds below were run against T1, ΔF508-CFTR (Homo sapiens, UniProt P13569, DEL508-508) (assay: hBE equivalent current (Ieq) assay: AUC of equivalent chloride current after forskolin/VX-770 in primary lung epithelial cells homozygous for ΔF508). Conditions: relative to CFTR amplifier (Compound A)+VX-809 (3 uM), compound at 10 uM and Compound A at 3 uM, 24 h treatment.
T1 construct: Primary lung epithelial cells homozygous for the Cystic Fibrosis-causing ΔF508 mutation were differentiated for a minimum of 4 weeks; endogenous in cells; host or cells: primary lung epithelial cells (hBE) homozygous for ΔF508, differentiated at an air-liquid interface
T1 sequence (P13569 with tags, fused parts or gaps DEL508-508): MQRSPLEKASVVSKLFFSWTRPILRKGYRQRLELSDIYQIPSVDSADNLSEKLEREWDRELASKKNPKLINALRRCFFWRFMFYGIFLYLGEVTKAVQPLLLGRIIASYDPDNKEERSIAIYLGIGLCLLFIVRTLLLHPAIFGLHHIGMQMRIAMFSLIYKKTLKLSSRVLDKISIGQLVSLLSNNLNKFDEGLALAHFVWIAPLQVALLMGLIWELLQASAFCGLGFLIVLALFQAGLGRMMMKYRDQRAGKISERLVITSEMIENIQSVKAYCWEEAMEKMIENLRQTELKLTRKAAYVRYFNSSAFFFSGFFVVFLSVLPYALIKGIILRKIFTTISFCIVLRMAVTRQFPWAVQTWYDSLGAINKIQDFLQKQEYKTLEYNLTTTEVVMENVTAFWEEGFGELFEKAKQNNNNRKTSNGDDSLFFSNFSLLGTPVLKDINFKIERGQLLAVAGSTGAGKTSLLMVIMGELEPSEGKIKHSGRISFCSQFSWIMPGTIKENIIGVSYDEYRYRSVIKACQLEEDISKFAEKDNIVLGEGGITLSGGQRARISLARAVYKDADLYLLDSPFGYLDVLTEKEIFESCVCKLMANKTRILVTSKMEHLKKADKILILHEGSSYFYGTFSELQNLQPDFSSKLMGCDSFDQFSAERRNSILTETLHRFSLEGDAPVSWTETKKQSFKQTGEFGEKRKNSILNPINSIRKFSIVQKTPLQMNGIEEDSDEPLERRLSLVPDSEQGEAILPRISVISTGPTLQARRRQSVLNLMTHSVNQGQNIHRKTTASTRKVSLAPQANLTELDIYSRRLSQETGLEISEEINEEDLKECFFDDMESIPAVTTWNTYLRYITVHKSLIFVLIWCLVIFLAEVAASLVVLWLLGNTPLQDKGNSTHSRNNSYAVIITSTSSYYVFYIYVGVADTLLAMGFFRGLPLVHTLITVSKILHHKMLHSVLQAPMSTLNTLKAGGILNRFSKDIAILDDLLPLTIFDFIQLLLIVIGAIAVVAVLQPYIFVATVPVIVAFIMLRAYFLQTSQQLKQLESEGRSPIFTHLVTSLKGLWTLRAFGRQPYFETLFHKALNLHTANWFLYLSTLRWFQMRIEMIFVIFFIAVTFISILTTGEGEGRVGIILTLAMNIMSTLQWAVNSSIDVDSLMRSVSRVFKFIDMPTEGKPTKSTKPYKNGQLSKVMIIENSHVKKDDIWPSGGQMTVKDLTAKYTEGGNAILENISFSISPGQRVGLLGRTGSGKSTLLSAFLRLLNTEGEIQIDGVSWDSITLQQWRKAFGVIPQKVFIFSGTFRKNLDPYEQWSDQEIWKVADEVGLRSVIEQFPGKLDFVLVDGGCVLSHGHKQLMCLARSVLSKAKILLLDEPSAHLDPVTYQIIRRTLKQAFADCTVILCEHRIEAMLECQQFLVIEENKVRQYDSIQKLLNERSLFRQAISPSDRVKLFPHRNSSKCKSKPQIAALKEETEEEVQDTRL
Format: cell-based
Protocol: ii. hBE Equivalent Current (Ieq) Assay
Primary lung epithelial cells homozygous for the Cystic Fibrosis-causing ΔF508 mutation were differentiated for a minimum of 4 weeks in an air-liquid interface on Costar 24 well HTS filter plates prior to the equivalent current (Ieq) measurements. Cells were apically mucus-washed for 30 minutes 24 h prior to treatment with compounds. The basolateral media was removed and replaced with media containing the compound of interest diluted to its final concentration from DMSO stocks. Treated cells were incubated at 37° C. and 5% CO2 for 24 hours. At the end of the treatment period, the media was changed to the Ieq experimental solution for 2 hours before the experiment and plates are maintained in a CO2-free incubator during this period. The plates containing the cells were then placed in pre-warmed heating blocks at 36° C.±0.5 for 15 minutes before measurements are taken. The transepithelial voltage (VT) and conductance (GT) were measured using a custom 24 channel current clamp (TECC-24) with 24 well electrode manifold. The Ieq assay measurements were made following additions with standardized time periods: • 1. The baseline VT and GT values were measured for approximately 20 minutes. • 2. Benzamil was added to block ENaC for 15 minutes. • 3. Forskolin plus VX-770 were added to maximally activate ΔF508-CFTR for 27 minutes. • 4. Bumetanide was added to inhibit the NaK2Cl cotransporter and shut-off secretion of chloride.
The activity data captured was the area under the curve (AUC) for the traces of the equivalent chloride current. The AUC was collected from the time of the forskolin/VX-770 addition until the inhibition by bumetanide addition. Correction in response to compound treatment was scored as the increase in the AUC for compound-treated samples over that of vehicle-treated samples.
(+ indicates activity<50% of an CFTR amplifier (Compound A)+VX-809 (3 uM) with compound at 10 uM and Compound A at 3 uM; ++ indicates activity>50% of CFTR amplifier+VX-809 (3 uM) with compound at 10 uM and Compound A at 3 uM.
`Cc1c(-c2nc(C(=O)O)c3c(OCc4ccccc4)ccc(C)c3n2)oc2ccccc12` [Compound 101, 5-(Benzyloxy)-8-methyl-2-(3-methyl-1-benzofuran-2-yl)quinazoline-4-carboxylic Acid] was tested, and the Activity was “++ (activity>50% of CFTR amplifier+VX-809 (3 uM) with compound at 10 uM and Compound A at 3 uM)”. With `Cc1c(-c2cc(C(=O)O)c3cc(Cl)cc(C)c3n2)sc2ccccc12` [Compound 104, 6-Chloro-8-methyl-2-(3-methyl-1-benzothiophen-2-yl)quinoline-4-carboxylic acid] the Activity was “++ (activity>50% of CFTR amplifier+VX-809 (3 uM) with compound at 10 uM and Compound A at 3 uM)”. With `Cc1cc(C)c2nc(-c3oc4ccccc4c3C)c(C(=O)O)cc2c1` [Compound 105, 6,8-Dimethyl-2-(3-methyl-1-benzofuran-2-yl)quinoline-3-carboxylic Acid] the Activity was “+ (activity<50% of an CFTR amplifier (Compound A)+VX-809 (3 uM) with compound at 10 uM and Compound A at 3 uM)”. In the case of `Cc1oc2ccccc2c1-c1cc(C(=O)O)c2c(OCc3ccccc3)ccc(C3CC3)c2n1` [Compound 106, 5-(Benzyloxy)-8-cyclopropyl-2-(2-methyl-1-benzofuran-3-yl)quinoline-4-carboxylic acid], the Activity is reported as “++ (activity>50% of CFTR amplifier+VX-809 (3 uM) with compound at 10 uM and Compound A at 3 uM)”. For `Cc1c(-c2cc(C(=O)O)c3c(OCc4ccccc4)ccc(C4CC4)c3n2)oc2ccccc12` [Compound 107, 5-(Benzyloxy)-8-cyclopropyl-2-(3-methyl-1-benzofuran-2-yl)quinoline-4-carboxylic acid], the Activity was “++ (activity>50% of CFTR amplifier+VX-809 (3 uM) with compound at 10 uM and Compound A at 3 uM)”. For `CCc1ccc(OCc2ccccc2)c2c(C(=O)O)cc(-c3oc4ccccc4c3C)nc12` [Compound 108, 5-(benzyloxy)-8-ethyl-2-(3-methyl-1-benzofuran-2-yl)quinoline-4-carboxylic acid], the Activity was “++ (activity>50% of CFTR amplifier+VX-809 (3 uM) with compound at 10 uM and Compound A at 3 uM)”. `Cc1c(-c2cc(C(=O)O)c3c(OCc4ccccc4)ccc(C(C)C)c3n2)oc2ccccc12` [Compound 109, 5-(Benzyloxy)-2-(3-methyl-1-benzofuran-2-yl)-8-(propan-2-yl)quinoline-4-carboxylic acid] was tested, and the Activity was “++ (activity>50% of CFTR amplifier+VX-809 (3 uM) with compound at 10 uM and Compound A at 3 uM)”. With `Cc1c(-c2cc(C(=O)O)c3c(OCc4ccccc4)ccc(F)c3n2)oc2ccccc12` [Compound 110, 5-(Benzyloxy)-8-fluoro-2-(3-methyl-1-benzofuran-2-yl)quinoline-4-carboxylic acid] the Activity was “++ (activity>50% of CFTR amplifier+VX-809 (3 uM) with compound at 10 uM and Compound A at 3 uM)”. With `Cc1c(-c2cc(C(=O)O)c3c(OCc4ccccc4)ccc(Cl)c3n2)oc2ccccc12` [Compound 111, 5-(Benzyloxy)-8-chloro-2-(3-methyl-1-benzofuran-2-yl)quinoline-4-carboxylic acid] the Activity was “+ (activity<50% of an CFTR amplifier (Compound A)+VX-809 (3 uM) with compound at 10 uM and Compound A at 3 uM)”. With `Cc1c(-c2cc(C(=O)O)c3c(OCc4ccccc4)ccc(C#N)c3n2)oc2ccccc12` [Compound 112, 5-(benzyloxy)-8-cyano-2-(3-methyl-1-benzofuran-2-yl)quinoline-4-carboxylic Acid] the Activity was “++ (activity>50% of CFTR amplifier+VX-809 (3 uM) with compound at 10 uM and Compound A at 3 uM)”. `CCc1ccc(C)c2nc(-c3oc4ccccc4c3C)cc(C(=O)O)c12` [Compound 113, 5-Ethyl-8-methyl-2-(3-methyl-1-benzofuran-2-yl)quinoline-4-carboxylic acid] was tested, and the Activity was “+ (activity<50% of an CFTR amplifier (Compound A)+VX-809 (3 uM) with compound at 10 uM and Compound A at 3 uM)”. In the case of `Cc1c(-c2cc(C(=O)O)c3c(OCc4cccnc4)ccc(C)c3n2)oc2ccccc12` [Compound 114, 8-Methyl-2-(3-methyl-1-benzofuran-2-yl)-5-(pyridin-3-ylmethoxy)quinoline-4-carboxylic acid], the Activity is reported as “+ (activity<50% of an CFTR amplifier (Compound A)+VX-809 (3 uM) with compound at 10 uM and Compound A at 3 uM)”. With `Cc1c(-c2cc(C(=O)O)c3c(OCc4ccccn4)ccc(C)c3n2)oc2ccccc12` [Compound 115, 8-Methyl-2-(3-methyl-1-benzofuran-2-yl)-5-(pyridin-2-ylmethoxy)quinoline-4-carboxylic acid] the Activity was “+ (activity<50% of an CFTR amplifier (Compound A)+VX-809 (3 uM) with compound at 10 uM and Compound A at 3 uM)”. For `Cc1c(-c2cc(C(=O)O)c3c(NCc4ccccc4)ccc(C)c3n2)oc2ccccc12` [Compound 116, 5-(Benzylamino)-8-methyl-2-(3-methyl-1-benzofuran-2-yl)quinoline-4-carboxylic Acid], the Activity was “++ (activity>50% of CFTR amplifier+VX-809 (3 uM) with compound at 10 uM and Compound A at 3 uM)”. For `Cc1c(-c2cc(C(=O)O)c3cc(OC(F)(F)F)cc(C)c3n2)oc2ccccc12` [Compound 117, 8-Methyl-2-(3-methyl-1-benzofuran-2-yl)-6-(trifluoromethoxy)quinoline-4-carboxylic acid], the Activity was “++ (activity>50% of CFTR amplifier+VX-809 (3 uM) with compound at 10 uM and Compound A at 3 uM)”. With `Cc1c(-c2cc(C(=O)O)c3cc(OC(F)F)cc(C)c3n2)oc2ccccc12` [Compound 118, 6-(Difluoromethoxy)-8-methyl-2-(3-methyl-1-benzofuran-2-yl)quinoline-4-carboxylic acid] the Activity was “++ (activity>50% of CFTR amplifier+VX-809 (3 uM) with compound at 10 uM and Compound A at 3 uM)”. For `Cc1c(-c2cc(C(=O)O)c3cc(OCC(F)F)cc(C)c3n2)oc2ccccc12` [Compound 119, 6-(2,2-Difluoroethoxy)-8-methyl-2-(3-methyl-1-benzofuran-2-yl)quinoline-4-carboxylic acid], the Activity was “+ (activity<50% of an CFTR amplifier (Compound A)+VX-809 (3 uM) with compound at 10 uM and Compound A at 3 uM)”. With `Cc1c(-c2cc(C(=O)O)c3c(OC(F)F)ccc(C)c3n2)oc2ccccc12` [Compound 120, 5-(Difluoromethoxy)-8-methyl-2-(3-methyl-1-benzofuran-2-yl)quinoline-4-carboxylic acid] the Activity was “++ (activity>50% of CFTR amplifier+VX-809 (3 uM) with compound at 10 uM and Compound A at 3 uM)”. `Cc1c(-c2cc(C(=O)O)c3c(OC(F)(F)F)ccc(C)c3n2)oc2ccccc12` [Compound 121, 8-Methyl-2-(3-methyl-1-benzofuran-2-yl)-5-(trifluoromethoxy)quinoline-4-carboxylic acid] was tested, and the Activity was “+ (activity<50% of an CFTR amplifier (Compound A)+VX-809 (3 uM) with compound at 10 uM and Compound A at 3 uM)”. For `Cc1c(-c2cc(C(=O)O)c3c(OCC(F)F)ccc(C)c3n2)oc2ccccc12` [Compound 122, 5-(2,2-Difluoroethoxy)-8-methyl-2-(3-methyl-1-benzofuran-2-yl)quinoline-4-carboxylic acid], the Activity was “++ (activity>50% of CFTR amplifier+VX-809 (3 uM) with compound at 10 uM and Compound A at 3 uM)”. For `Cc1oc2ccccc2c1-c1cc(C(=O)O)c2c(OC(F)F)ccc(C)c2n1` [Compound 123, 5-(Difluoromethoxy)-8-methyl-2-(2-methyl-1-benzofuran-3-yl)quinoline-4-carboxylic acid], the Activity was “+ (activity<50% of an CFTR amplifier (Compound A)+VX-809 (3 uM) with compound at 10 uM and Compound A at 3 uM)”. With `Cc1oc2ccccc2c1-c1cc(C(=O)O)c2c(OCC(F)F)ccc(C)c2n1` [Compound 124, 5-(2,2-Difluoroethoxy)-8-methyl-2-(2-methyl-1-benzofuran-3-yl)quinoline-4-carboxylic acid] the Activity was “+ (activity<50% of an CFTR amplifier (Compound A)+VX-809 (3 uM) with compound at 10 uM and Compound A at 3 uM)”. `Cc1c(-c2cc(C(=O)O)c3c(C)ccc(C)c3n2)oc2c(C)cccc12` [Compound 125, 2-(3,7-Dimethyl-1-benzofuran-2-yl)-5,8-dimethylquinoline-4-carboxylic acid] was tested, and the Activity was “++ (activity>50% of CFTR amplifier+VX-809 (3 uM) with compound at 10 uM and Compound A at 3 uM)”. In the case of `Cc1ccc2oc(-c3cc(C(=O)O)c4c(C)ccc(C)c4n3)c(C)c2c1` [Compound 127, 2-(3,5-Dimethylbenzofuran-2-yl)-5,8-dimethylquinoline-4-carboxylic acid], the Activity is reported as “++ (activity>50% of CFTR amplifier+VX-809 (3 uM) with compound at 10 uM and Compound A at 3 uM)”. For `Cc1ccc(C)c2c(C(=O)O)cc(-c3oc4cccc(C)c4c3C)nc12` [Compound 128, 2-(3,4-Dimethyl-1-benzofuran-2-yl)-5,8-dimethylquinoline-4-carboxylic acid], the Activity was “+ (activity<50% of an CFTR amplifier (Compound A)+VX-809 (3 uM) with compound at 10 uM and Compound A at 3 uM)”. `Cc1c(-c2cc(C(=O)O)c3c(C)ccc(C)c3n2)oc2c(Cl)cccc12` [Compound 129, 2-(7-Chloro-3-methylbenzofuran-2-yl)-5,8-dimethylquinoline-4-carboxylic acid] was tested, and the Activity was “+ (activity<50% of an CFTR amplifier (Compound A)+VX-809 (3 uM) with compound at 10 uM and Compound A at 3 uM)”.
